The text below walks through data of US9499493B2, “2,4-pyrimidinediamine compounds and their uses” (Rigel Pharmaceuticals, Inc., priority 2002, dated 2016).

In this test the test system is cultured human mast cells (CHMC). The test is described as follows: CHMC low cell density IgE activation: tryptase assay. The test is classed as cell-based. The conditions noted are these: anti-IgE. The method, then: Pellet CHMC cells (980 rpm, 10 min) and resuspend in pre-warmed MT. Add 65 ul of cells to each 96-well plate. Depending on the degranulation activity for each particular CHMC donor, load 1000-1500 cells/well. Mix four times followed by a 1 hr incubation at 37° C. […] Stimulate cells by adding 25 ul of 6× anti-IgE solution to the appropriate plates. Add 25 ul MT to un-stimulated control wells. Mix twice following addition of the anti-IgE. Incubate at 37° C. for 30 minutes. […] Spin plates at 1000 rpm for 10 min to pellet cells. Transfer 25 ul of supernatant to a 96-well black bottom plate and add 100 ul of freshly diluted tryptase substrate solution to each well. Incubate plates at room temperature for 30 min.
The molecule `COC(=O)C1Cc2cc(Nc3ncc(F)c(Nc4ccc(OCCO)nc4)n3)ccc2O1` (racemic) [R927025, (±)-N2-(2,3-Dihydro-2-methoxycarbonylbenzofuran-5-yl)-5-fluoro-N4-[2-(2-hydroxyethyleneoxy)pyridin-5-yl]-5-fluoro-2,4-pyrimidinediamine] gave a 50% inhibitory concentration (IC50) of 0.326 µM.
As to `Fc1cnc(Cl)nc1Nc1ccc(Cl)nc1` [Compound R920400], the IC50 was more than 10 µM.
Consider `Cc1ccnc(Nc2nc(Cl)ncc2F)c1` [Compound R920401], for which the IC50 is more than 10 µM.
Then `Fc1cnc(Cl)nc1Nc1cccc(OC(F)(F)F)c1` [Compound R920402], with more than 10 µM; and `Fc1cnc(Cl)nc1Nc1ccc2c(c1)OC(F)(F)O2` [Compound R920403], with more than 10 µM.
Then `Fc1cnc(Cl)nc1Nc1ccc2ncccc2c1` [Compound R920409], with more than 10 µM.
Then `CCOC(=O)C=C1NN=C(c2cccc(Nc3nc(Cl)ncc3F)c2)O1` [Compound R926873], with more than 10 µM; and `Fc1cnc(Cl)nc1Nc1ccc(OC(F)(F)F)cc1` [Compound R926875], with more than 10 µM.
For `Fc1cnc(Cl)nc1Nc1ccc(C(F)(F)F)cc1` [Compound R926876], the IC50 is more than 10 µM.
On to `Fc1cnc(Cl)nc1Nc1ccc(Cl)c(C(F)(F)F)c1` [Compound R926877], for which the IC50 is more than 10 µM.
As to `COc1ccc(Nc2nc(Cl)ncc2F)cn1` [Compound R926878], the IC50 was more than 10 µM.
The figure for `Fc1ccc(Nc2nc(Cl)ncc2F)cc1F` [Compound R926882] is more than 10 µM.
In the case of `Fc1cnc(Cl)nc1Nc1ccc(Cl)c(Cl)c1` [Compound R926884], the IC50 is more than 10 µM.
The figure for `Cc1cccc(Nc2nc(Cl)ncc2F)n1` [Compound R926888] is more than 10 µM; for `Fc1cnc(Cl)nc1Nc1ccc2cn[nH]c2c1` [Compound R935260] it is more than 10 µM.
Then `Fc1cnc(Cl)nc1Nn1cccc1` [Compound R935275], with more than 10 µM.
Then `COc1ccc(Nc2nc(Cl)ncc2F)cc1CN1CCOCC1` [Compound R940313], with more than 10 µM; and `CC1(C)CN(c2cccc[n+]2[O-])c2cc(Nc3nc(Cl)ncc3F)ccc2O1` [Compound R940328], with more than 10 µM.
The molecule `CC1(C)CN(c2ccccn2)c2cc(Nc3nc(Cl)ncc3F)ccc2O1` [Compound R940336] had an IC50 of more than 10 µM.
Then `CC1(C)Oc2cc(Nc3nc(Cl)ncc3F)cnc2NC1=O` [Compound R940344], with more than 10 µM.
The figure for `CN(C)C(=O)COc1cccc(Nc2ncc(F)c(Nc3ccc4c(c3)NCCO4)n2)c1` [R909290, N2-[3-(N,N-Dimethylaminocarbonylmethyleneoxy)phenyl]-N4-(1,4-benzoxazin-6-yl)-5-fluoro-2,4-pyrimidinediamine] is 0.226 µM; for `CNC(=O)COc1cccc(Nc2ncc(F)c(Nc3ccc4c(c3)N(C(=N)N)CCO4)n2)c1` [R909292, N4-(4N-Carboxamidino-1,4-benzoxazin-6-yl)-5-fluoro-N2-[3-(N-methylamino)carbonylmethyleneoxyphenyl]-2,4-pyrimidinediamine] it is 1.17 µM.
The figure for `C[C@H](Nc1ncc(F)c(N[C@@H](C)[C@H](O)c2ccccc2)n1)[C@H](O)c1ccccc1` [R925767, N2,N4-Bis[(2R)-hydroxy-(1S)-methyl-2-phenylethyl]-5-fluoro-2,4-pyrimidinediamine] is 10 µM.
Turning to `Fc1cnc(NCc2ccc3c(c2)OCO3)nc1NCc1ccc2c(c1)OCO2` [R925770, N2,N4-Bis(piperonyl)-5-fluoro-2,4-pyrimidineamine], the IC50 is more than 10 µM.
Take `Oc1cccc(Nc2ncc(F)c(Nc3ccc4c(c3)OCCO4)n2)c1` [R926210, N4-(3,4-Ethylenedioxyphenyl)-5-fluoro-N2-(3-hydroxyphenyl)-2,4-pyrimidinediamine]: the IC50 was 0.926 µM.

For orientation: IC50 means the midpoint of a concentration-inhibition curve.
